Results on 6 compounds are retold here after patent publication US20140171629A1, “MEDICINAL AGENT FOR MEDICAL APPLICATIONS” (HITACHI ALOKA MEDICAL, LTD., priority 2011, published 2014).

The test system of one assay is NUTOS cells. The experiment in a line: Incorporation of serotonin into NUTOS cells (culture medium level, anti-serotonin antibody immunostaining). Particulars: serotonin in fetal bovine serum added to culture medium. The assay is classed as cell-based, human. Here is the method:
When fetal bovine serum containing serotonin was added to a culture medium containing this NUTOS cell line, the amount of serotonin in the culture medium was decreased. […] The detailed mechanism of this incorporation has not been elucidated yet, and also the role of serotonin incorporated therein has not been elucidated yet.

Assay [1] has as its system rhabdomyosarcoma cell line (NUTOS). The experiment in a line: Survival rate of confluent NUTOS cells 15 hours after adding anticancer agent (trypan blue count). It counts as cell-based, human. Particulars: serum-free DMEM/F12, 15 hours, n=5, FIG. 1. Here is the method:
A rhabdomyosarcoma cell line (NUTOS) established from alveolar rhabdomyosarcoma developed in the tongue of a child was used. […] In FIG. 1, the horizontal axis represents the concentration (ng/ml) of the added anticancer agent and the longitudinal axis represents the survival rate (%) of the cells after 15 hours (n=5). 1. Cells were plated on a plate and cultured to a confluent state using a DMEM/F12 culture medium supplemented with 15% fetal bovine serum. 2. The culture medium was removed and replaced with a serum-free DMEM/F12 culture medium supplemented with a given amount of an anticancer agent, and the cells were cultured for 15 hours. 3. The culture medium was removed, and the cells were washed with Hanks' solution and detached with trypsin. The detached cells were transferred to a tube and centrifuged. 4. The supernatant was removed, and the cells were suspended in a given amount of a culture medium. 5. An aliquot of the cell suspension was taken and the same amount of trypan blue was added thereto. Then, the cells were counted using a hemocytometer.

Assay [2] relates to rhabdomyosarcoma cell line (HUMENS). The experiment in a line: Survival rate of confluent HUMENS cells 15 hours after adding anticancer agent (trypan blue count). The assay is classed as cell-based. The settings on record: FIG. 2. Here is the method:
1. Cells were plated on a plate and cultured to a confluent state using a DMEM/F12 culture medium supplemented with 15% fetal bovine serum.
2. The culture medium was removed and replaced with a serum-free DMEM/F12 culture medium supplemented with a given amount of an anticancer agent, and the cells were cultured for 15 hours.
3. The culture medium was removed, and the cells were washed with Hanks' solution and detached with trypsin. The detached cells were transferred to a tube and centrifuged.
4. The supernatant was removed, and the cells were suspended in a given amount of a culture medium.
5. An aliquot of the cell suspension was taken and the same amount of trypan blue was added thereto. Then, the cells were counted using a hemocytometer.
The percentage of incorporation of a dye was counted 15 hours after adding an anticancer agent (s-PTX, s-CDDP, s-CBDCA, s-ADM, or s-CPA (all of which are in Example 8), PTX, CDDP, CBDCA, ADM, or CPA (all of which are in Comparative Example 2)) to confluent cells (HUMENS) in the same manner as in Example 7 or Comparative Example 1, except that a rhabdomyosarcoma cell line (HUMENS) established from alveolar rhabdomyosarcoma obtained from the mammary gland was used as the cells in place of NUTOS.

With `NCCc1c[nH]c2ccc(O)cc12` [serotonin], the “incorporation into NUTOS cells” value with NUTOS cells is recorded as “specifically incorporated into the NUTOS cells”.
Consider `CC(=O)O[C@H]1C(=O)[C@@]2(C)[C@H]([C@H](OC(=O)c3ccccc3)[C@]3(O)C[C@H](OC(=O)[C@H](O)[C@@H](NC(=O)c4ccccc4)c4ccccc4)C(C)=C1C3(C)C)[C@]1(OC(C)=O)CO[C@@H]1C[C@@H]2O` [PTX, paclitaxel], for which the “anticancer effect (survival rate of the cells after 15 hours)” value (“anticancer effect” below) in assay [1] and in assay [2] was “exhibited an anticancer effect by itself” each time.
Take `[NH2][Pt]([NH2])([Cl])[Cl]` [CDDP, cisplatin]: the “anticancer effect” value in assay [1] and in assay [2] was “exhibited an anticancer effect by itself” each time.
As to `N.N.O=C([O-])C1(C(=O)[O-])CCC1.[Pt+2]` [CBDCA, carboplatin], the “anticancer effect” value in assay [1] and in assay [2] was “exhibited an anticancer effect by itself” in each case.
In the case of `O=P1(N(CCCl)CCCl)NCCCO1` (centres unmarked) [CPA, cyclophosphamide], the “anticancer effect” value in assay [1] was “only a slight anticancer effect”; in assay [2] it was “exhibited an anticancer effect by itself”.
For the compound `COc1cccc2c1C(=O)c1c(O)c3c(c(O)c1C2=O)C[C@@](O)(C(=O)CO)C[C@@H]3O[C@H]1C[C@H](N)[C@H](O)[C@H](C)O1.Cl` [ADM, adriamycin], the “anticancer effect” value in assay [1] and in assay [2] was “only a slight anticancer effect” throughout.
